In data set [1] the target is human 5-HT2A (h5-HT2A) receptor (Homo sapiens (Human), UniProt P28223). Kind of data set: FLIPR calcium assay, human 5-HT2A receptor, agonist mode. The data set is classed as cell-based. Here is the method:
I. Assessment of the Activated Effect of Exemplary Compounds of Formula I Targeting on Human 5-HT2A (h5-HT2A) Receptor Under Agonist Mode:
1. Culture the cells in cell culture medium (DMEM containing 10% FBS, 1× penicillin-streptomycin 300 μg/ml G418 and 100 μg/ml hygromycin B) at 37° C., 5% (v/v) CO2.
2. One day before the assays, detach the cell using TrypLE™ Express and count cells using cell counter.
3. Seed 20000 cells/well in 30 μl/well culture medium to a 384-well cell plate and incubate the cells overnight at 37° C., 5% (v/v) CO2.
4. On the assay day, prepare 2×dye solution following the manual of the FLIPR® Calcium 6 Assay Kit: i. Dilute the dye with assay buffer(20 mM HEPES in 1× HBSS, PH7.4); ii. Add probenecid to the final concentration of 5 mM; iii. Vortex vigorously for 1-2 minutes.
5. Medium from cell plate by flicking the cell plate on towel papers.
6. Add 10 μl of assay buffer and 10 μl of 2×dye solution to each well of the cell plate.
7. Put the cell plate on plate shaker, agitate the plate at 600 rpm for 2 minutes. Incubate the plate at 37° C. for 2 hours followed by additional 15-minute incubation at 25° C.
8. Prepare 3×compound in assay buffer: a. Dilute reference compounds to required concentration with DMSO. Add the compounds to a 384-well compound plate; b. Perform serial dilutions; c. Add 10 mM test compounds to the compound plate, perform 3-fold serial dilutions. d. […] Add 20 μl/well assay buffer to the compound plate; f. Mix the plate on plate shaker for 2 mins;
i. The normalized fluorescence reading (RFU) is calculated as shown follow, while Fmax and Fmin stand for maximum and minimum of calcium signal during defined time window: RFU=Fmax−Fmin
ii. Calculate the percentage activation by using following equation: […]
iii. Calculate EC50 by fitting % activation against log of compound concentrations with Hill equation using XLfit.

A further data set concerns the target human 5-HT2A receptor (Homo sapiens (Human), UniProt P28223). Description: Radioligand ([3H]-ketanserin) binding assay on human 5-HT2A receptor. The method, then:
i. Prepare the assay buffer following the table below;
ii. Preparation of 8 doses of reference and exemplary test compounds starting from 10 mM stock solution as requested by 5-fold serial dilutions with 100%;
iii. […] a. Add 50 μl/well of 0.5% (v/v) PEI to UniFilter-96 GF/B plates. Seal the plates and incubate at 4° C. for 3 hrs; b. After incubation, wash the plates 3 times with ice-cold wash buffer (50 mM Tris, pH7.4);
iv. Preparation of assay plates: a. Dilute cell membrane with assay buffer and add 330 μl/well to 96 round deep well plates to reach a concentration of 20 μg/well; b. Prepare 8 concentrations of reference or exemplary test compounds and add 110 μl/well to 96 round deep well plates; c. Dilute [3H]-ketanserin with assay buffer to 5 nM (5× final concentration) and add 110 μl/well to 96 round deep well plates.
v. Centrifuge the plate at 1000 rpm for 30 secs and then agitate at 600 rpm, R.T. for 5 min.
vi. Seal the plates and incubate the plate at 27° C. for 90 min.
vii. Stop the incubation by vacuum filtration onto GF/B filter plates followed by 4 times washing with ice-cold wash buffer (50 mM Tris, pH7.4).
ix. Seal the filter plates and add 40 μl/well of scintillation cocktail.
x. Read the plate by using a Microbeta2 microplate counter.
For reference and exemplary test compounds, the results are expressed as % Inhibition, using the normalization equation: N=100−100×(U−C2)/(C1−C2), where U is the unknown value, C1 is the average of high controls, and C2 is the average of low controls. The IC50 is determined by fitting percentage of inhibition as a function of compound concentrations with Hill equation using XLfit.

A short description of data set [2]: Human liver microsomes stability with NADPH. To be noted: for Remaining Percentage (%) after 60 min, Human: human liver microsomes, with NADPH, 2 μM; for half-life at 2 μM / microsomal CLint at 2 μM: human, microsomes. The method, then: (§1) The objective of this study was to estimate in vitro metabolic stability of exemplary compounds in pooled human, male rat and male mouse liver microsomes. The concentrations of exemplary compounds in reaction systems were evaluated by LC-MS/MS for estimating the stability in pooled human, male rat and male mouse liver microsomes. The in vitro intrinsic clearances of test compounds were determined as well.
(§2) A master solution in the “Incubation Plate” containing phosphate buffer, ultra-pure H2O, MgCl2 solution and liver microsomes was made according to Table 3. The mixture was pre-warmed at 37° C. water bath for 5 minutes.
(§3) 40 μL of 10 mM NADPH solution was added to each well. The final concentration of NADPH was 1 mM. The negative control samples were prepared by replacing NADPH with 40 μL of ultra-pure H2O. Samples were prepared in duplicate. Negative controls were prepared in singlet.
(§4) The reaction was started with the addition of 4 μL of 200 μM exemplary test compounds or control compounds to each master solution to get the final concentration of 2 μM. This study was performed in duplicate.
(§5) Aliquots of 50 μL were taken from the reaction solution at 0, 15, 30, 45 and 60 minutes. The reaction solutions were stopped by the addition of 4 volumes of cold methanol with IS (100 nM alprazolam, 200 nM imipramine, 200 nM labetalol and 2 μM ketoprofen). Samples were centrifuged at 3,220 g for 40 minutes. Aliquot of 90 μL of the supernatant was mixed with 90 μL of ultra-pure H2O and then was used for LC-MS/MS analysis.
(§6) LC/MS analysis was performed for all samples from this study using a Shimadzu liquid chromatograph separation system equipped with degasser DGU-20A5R; solvent delivery unit LC-30AD; system controller SIL-30AC; column oven CTO-30A; CTC Analytics HTC PAL System. Mass spectrometric analysis was performed using an Triple Quad™ 5500 instrument.
(§7) All calculations were carried out using Microsoft Excel. Peak areas were determined from extracted ion chromatograms. The slope value, k, was determined by linear regression of the natural logarithm of the remaining percentage of the parent drug vs. incubation time curve.
(§8) Conversion of the in vitro t1/2 (min) into the in vitro intrinsic clearance (in vitro CLint, in μL/min/mg proteins) was done using the following equation (mean of duplicate determinations): […]
(Microsomes from liver hold many membrane-bound enzymes, among them those of drug oxidation.)

Data set [3] can be described thus: Rat liver microsomes stability with NADPH. To be noted: for half-life at 2 μM / microsomal CLint at 2 μM: male, rat, microsomes; for Remaining Percentage (%) after 60 min, Rat: rat liver microsomes, with NADPH, 2 μM. Here is the method:
as §1, §2, §3, §4, §5, §6, §7, §8

Data set [4] in a line: Mouse liver microsomes stability with NADPH. The settings on record: for half-life at 2 μM / microsomal CLint at 2 μM: male, mouse, microsomes; for Remaining Percentage (%) after 60 min, Mouse: mouse liver microsomes, with NADPH, 2 μM. Here is the method:
as §1, §2, §3, §4, §5, §6, §7, §8

Data set [5] concerns head-twitch response (HTR) in male C57BL6 mice. Description: Mouse head-twitch response (HTR). The data set is classed as in vivo. The settings on record: M100907 0.5 mg/kg IP before I-2 10 mg/kg SC. The method, then: Male, C57BL/6J mice (body weight range 20-30 g) were dosed with the appropriate dose of test article, and following a 1-minute pre-treatment time, placed in individual observation chambers. Animals were visually assessed for the incidence head twitches continuously over a 1 hr period. Head twitches were defined as a rapid jerk of the head which was not elicited by an external tactile stimulus (Come and Pickering, Psychopharmacologia, 1967, 11(1): 65-78). Each head twitch was individually counted by a trained observer, and the data expressed as the mean±SEM of 6-10 mice per group. Mice were used in a single experiment only.
The effect of various doses of exemplary compound of Formula I, I-2, on head-twitch response (HTR) in male C57BL6 mice were measured. The mice were treated with compound I-2 (0.03-10 mg/kg, SC) by SC route (N=6 mice/dose), and the total number of head twitches were recorded over a 1h period. Data is expressed as mean±SEM. The induction of head twitches elicited by 5-HT2A receptor agonists is believed to represent a behavioural proxy of their psychedelic effects.
To evaluate the involvement of 5-HT2A receptor on the HTR induced by exemplary compounds of Formula I, mice were pretreated with the selective 5-HT2AR antagonist M100907 (also known as volinanserin) prior to the administration of exemplary compounds of Formula I, for example, 1-2 (10 mg/kg SC).

The conditions of data set [6]: tobacco use disorder, cited from earlier work.

pEC50, pIC50: −log10 of the molar value. Like-named read-outs stand apart in the source and are kept apart here. Where only a bound is given, the exact number is not on record here.

We go through 4 molecules from patent publication US11453689B2, “3-pyrrolidine-indole derivatives as serotonergic psychedelic agents for the treatment of CNS disorders” (Mindset Pharma Inc., priority 2020, dated 2022).

The pEC50 is −log10 of the EC50, conventionally taken in molar units. Usually pIC50 stands for −log10 of the IC50, conventionally taken in molar units. By half-life is commonly meant how long it takes for the measured level to halve. Read a low half-life as fast loss. Broadly, the microsomal CLint is the rate of metabolic loss divided by the concentration. Read a high microsomal CLint as rapid turnover. In the case of `[2H]C([2H])(c1c[nH]c2cccc(OC(=O)CCCCCCC/C=C\C/C=C\CCCCC)c12)[C@H]1CCCN1C([2H])([2H])[2H]` [Compound I-49, 3-(((R)-1-(methyl-d3)pyrrolidin-2-yl)methyl-d2)-1H-indol-4-yl (9Z,12Z)-octadeca-9,12-dienoate], in data set [1] (FLIPR, agonist mode, read-out: h5-HT2A EC50), the pEC50 was 5.00 to 6.00. Also, the pIC50 on human 5-HT2A receptor ([3H]-ketanserin competition binding, read-out: h5-HT2A IC50) was more than 6.30. In data set [2], the “Remaining Percentage (%) after 60 min, Human” value worked out at 86.81%; the half-life at 2 μM was 4.9 h; the microsomal CLint at 2 μM is 4.72 µL/min/mg. In data set [3], the half-life at 2 μM was 0.807 h; the microsomal CLint at 2 μM is 28.6 µL/min/mg; the “Remaining Percentage (%) after 60 min, Rat” value was found to be 42.38%. Besides, in data set [4], the half-life at 2 μM was 0.347 h; the intrinsic metabolic clearance (microsomal CLint) at 2 μM turned out to be 66.5 µL/min/mg; the “Remaining Percentage (%) after 60 min, Mouse” value worked out at 13.60%.

As to `[2H]C([2H])(c1c[nH]c2cccc(O)c12)[C@H]1CCCN1` [Compound I-50, (R)-3-(pyrrolidin-2-ylmethyl-d2)-1H-indol-4-ol], the pEC50 in data set [1] is more than 6.00. This molecule also gave a pIC50 at human 5-HT2A receptor of 5.30 to 6.30. Further, in data set [2], the “Remaining Percentage (%) after 60 min, Human” value worked out at 69.29%; the half-life at 2 μM was 1.89 h; the intrinsic clearance (microsomal CLint) at 2 μM was found to be 12.2 µL/min/mg. In data set [3], the half-life at 2 μM is 0.662 h; the microsomal CLint at 2 μM amounted to 34.9 µL/min/mg; the “Remaining Percentage (%) after 60 min, Rat” value came to 34.11%. In data set [4], the half-life at 2 μM came out at 1.24 h; the microsomal CLint at 2 μM was 18.6 µL/min/mg; the “Remaining Percentage (%) after 60 min, Mouse” value was 57.27%.

For the molecule `COc1cccc([C@H](O)C2CCN(CCc3ccc(F)cc3)CC2)c1OC` [Compound M100907, reference compound], in data set [5], the “effect of I-2 on HTR after pretreatment with 5-HT2A antagonist M100907” value was “completely blocked”.

Regarding `CN(C)CCc1c[nH]c2cccc(OP(=O)(O)O)c12` [psilocybin, 4-phosphoryloxy-N,N-dimethyltrypatmine], the abstinence rate in data set [6] (12 months follow-up) is 67%; in data set [6] (six months follow-up) it was 80%.
